Source: patent publication US20260070945A1, “MACROCYCLIC IMMUNOMODULATORS” (Bristol-Myers Squibb Company, priority 2022, published 2026)
*1 amine or outer side, *2 acyl side, *3 side chain or, on linkers, in order; H or OH if unused. Where a SMILES comes first, the peptide text is derived from it. Bridges are numbered along the chain shown (N, C = ends). [ ]: non-standard residue; d: D form. The star is where a group is joined. ξ: configuration not given here. Phe(3-CF3) = N[C@@H](Cc1cccc(C(F)(F)F)c1)C(=O)O; Ala(morpholin-4-yl) = N[C@@H](CN1CCOCC1)C(=O)O; Phe(4-COOH) = N[C@@H](Cc1ccc(C(=O)O)cc1)C(=O)O; Bip = N[C@@H](Cc1ccc(-c2ccccc2)cc1)C(=O)O; Phe(3-Cl) = N[C@@H](Cc1cccc(Cl)c1)C(=O)O; NH(CH2)14COOH = O=C(O)CCCCCCCCCCCCCCN*; Phe(3-Me) = Cc1cccc(C[C@H](N)C(=O)O)c1; NH(CH2)12COOH = O=C(O)CCCCCCCCCCCCN*; NMeAEEA = CN(CCOCCOCC(=O)[*:2])[*:1]; Val(3-OH) = CC(C)(O)[C@H](N)C(=O)O; hArg = N=C(N)NCCCC[C@H](N)C(=O)O; 4Pal = N[C@@H](Cc1ccncc1)C(=O)O; Cha = N[C@@H](CC1CCCCC1)C(=O)O; Cit = NC(=O)NCCC[C@H](N)C(=O)O; Ile(3ξ) = CCC(C)[C@H](N)C(=O)O; Thr(3ξ) = CC(O)[C@H](N)C(=O)O; NMeNle = CCCC[C@H](NC)C(=O)O; Carboxymethyl = O=C(O)C*; NMeA = CN[C@@H](C)C(=O)O; Orn = NCCC[C@H](N)C(=O)O; Aun = NCCCCCCCCCCC(=O)O; Dab = NCC[C@H](N)C(=O)O; AEEA = NCCOCCOCC(=O)O

biological target: T1, PD-1/PD-L1 interaction (PE-labeled human PD-L1-Ig binding to Jurkat cell line over-expressing human PD-1) (Homo sapiens, UniProt Q15116); test: Jurkat-PD-1 Cell Binding High-Content Screening Assay (CBA); conditions: Jurkat-hPD-1 cells, PE-labeled PD-L1-Ig 20 nM final; read-out: Jurkat HPD1 PDL1 IC50
T1 construct: expressed in transfected cells; host or cells: Jurkat
T1 sequence (Q15116 25-288): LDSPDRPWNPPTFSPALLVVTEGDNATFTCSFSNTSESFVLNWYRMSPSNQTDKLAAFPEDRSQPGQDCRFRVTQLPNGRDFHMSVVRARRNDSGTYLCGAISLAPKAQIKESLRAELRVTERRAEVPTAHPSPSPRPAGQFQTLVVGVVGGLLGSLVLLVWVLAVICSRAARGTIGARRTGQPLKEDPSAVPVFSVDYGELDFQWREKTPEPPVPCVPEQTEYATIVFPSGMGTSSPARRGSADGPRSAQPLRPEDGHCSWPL
Method: Example 2: Jurkat-PD-1 Cell Binding High-Content Screening Assay (CBA)
Phycoerythrin (PE) was covalently linked to the Ig epitope tag of human PD-L1-Ig and fluorescently-labeled PD-L1-Ig was used for binding studies with a Jurkat cell line over-expressing human PD-1 (Jurkat-PD-1). Briefly, 8×10^3 Jurkat-hPD-1 cells were seeded into 384 well plates in 20 μl of DMEM supplemented with 10% fetal calf serum. 100 nl of compound was added to cells followed by incubation at 37° C. for 2 hours. Then, 5 μl of PE-labeled PD-L1-Ig (20 nM final), diluted in DMEM supplemented with 10% fetal calf serum. After 1 hour incubation, cells were fixed with […] in dPBS containing 10 μg/ml Hoechst 33342 and then washed 3× in 100 μl dPBS. Data was collected and processed using a Cell Insight NXT High Content Imager and associated software.

**Q.** For `CC(C)C[C@@H]1NC(=O)[C@H](Cc2c[nH]c3ccccc23)NC(=O)[C@H](CC(=O)O)NC(=O)[C@H](Cc2ccc(OCC(=O)O)cc2)NC(=O)[C@H](CCCCNC(=N)N)NC(=O)CSC[C@@H](C(=O)NCCOCCOCC(=O)N[C@@H](CCCNC(N)=O)C(=O)NCCCCCCCCCCC(=O)O)NC(=O)[C@H](CCCNC(N)=O)NC(=O)[C@H](C(C)C)NC(=O)[C@H](CC2CCCCC2)NC(=O)[C@H](CCN)NC(=O)[C@@H](CC(C)C)NC(=O)[C@H](C)N(C)C(=O)[C@H](C(C)C)NC(=O)[C@H](Cc2ccc(-c3ccccc3)cc2)NC1=O` [Example 2183] ({CH2CO}-[hArg]Y(Carboxymethyl)DWL[Bip]V[NMeA][dL][Dab][Cha]V[Cit]C[AEEA][Cit][Aun]-OH; thioether N-14), which IC50 is on record?
**A.** Its IC50 is 19.2 nM.

**Q.** For `CC(C)C[C@H]1NC(=O)[C@H](C)N(C)C(=O)[C@H](Cc2ccc(OCC(=O)O)cc2)NC(=O)[C@H](Cc2ccc(-c3ccccc3)cc2)NC(=O)[C@H](Cc2ccc(OCC(=O)O)cc2)NC(=O)[C@H](Cc2cccc(Cl)c2)NC(=O)[C@H](CC(=O)O)NC(=O)[C@H](Cc2ccc(OCC(=O)O)cc2)NC(=O)[C@H]([C@@H](C)O)NC(=O)CSC[C@@H](C(=O)N[C@@H](CCN)C(=O)NCCOCCOCC(=O)NCCCCCCCCCCC(=O)O)NC(=O)[C@H](CCC(=O)O)NC(=O)[C@H](C(C)C)NC(=O)[C@H](CC2CCCCC2)NC(=O)[C@H](CCN)NC1=O` [Example 1229] ({CH2CO}-TY(Carboxymethyl)D[Phe(3-Cl)]Y(Carboxymethyl)[Bip]Y(Carboxymethyl)[NMeA][dL][Dab][Cha]VEC[Dab][AEEA][Aun]-OH; thioether N-14), which IC50 is on record?
**A.** The IC50 was 15.2 nM.

**Q.** For `CCCC[C@H]1C(=O)N[C@H](CC(C)C)C(=O)N[C@@H](CCN)C(=O)N[C@@H](CC2CCCCC2)C(=O)N[C@@H](C(C)C)C(=O)N[C@@H](C(C)O)C(=O)N[C@H](C(=O)N[C@@H](CCCN)C(=O)NCCOCCOCC(=O)NCCCCCCCCCCC(=O)O)CSCC(=O)N[C@@H](Cc2ccncc2)C(=O)N[C@@H](Cc2ccc(OCC(=O)O)cc2)C(=O)N[C@@H](CC(=O)O)C(=O)N[C@@H](Cc2c[nH]c3ccccc23)C(=O)N[C@@H](C(C)C)C(=O)N[C@@H](Cc2ccc(-c3ccccc3)cc2)C(=O)N[C@@H](CC(C)C)C(=O)N1C` (stereo partly drawn) [Example 2114] ({CH2CO}-[4Pal]Y(Carboxymethyl)DWV[Bip]L[NMeNle][dL][Dab][Cha]V[Thr(3ξ)]C[Orn][AEEA][Aun]-OH; thioether N-14), which IC50 is on record?
**A.** Its IC50 is 102 nM.

**Q.** For `CC(C)C[C@H]1NC(=O)[C@H](C)N(C)C(=O)[C@H](Cc2ccc(OCC(=O)O)cc2)NC(=O)[C@H](Cc2ccc(-c3ccccc3)cc2)NC(=O)[C@H](Cc2ccc(OCC(=O)O)cc2)NC(=O)[C@H](Cc2c[nH]c3ccccc23)NC(=O)[C@H](CC(=O)O)NC(=O)[C@H](Cc2ccncc2)NC(=O)[C@H](Cc2ccc(OCC(=O)O)cc2)NC(=O)CSC[C@@H](C(=O)N[C@@H](CCCN)C(=O)NCCOCCOCC(=O)NCCCCCCCCCCC(=O)O)NC(=O)[C@H]([C@@H](C)O)NC(=O)[C@H](C(C)C)NC(=O)[C@H](CC2CCCCC2)NC(=O)[C@H](CC(N)=O)NC1=O` [Example 1379] ({CH2CO}-Y(Carboxymethyl)[4Pal]DWY(Carboxymethyl)[Bip]Y(Carboxymethyl)[NMeA][dL]N[Cha]VTC[Orn][AEEA][Aun]-OH; thioether N-14), which IC50 is on record?
**A.** The IC50 was 175 nM.

**Q.** `CC(=O)NCCCC[C@@H]1NC(=O)[C@H](C(C)(C)O)NC(=O)[C@H](CC2CCCCC2)NC(=O)[C@H](CCN)NC(=O)[C@@H](CC(C)C)NC(=O)[C@H](C)N(C)C(=O)[C@H](CCCNC(N)=O)NC(=O)[C@H](Cc2ccc(-c3ccccc3)cc2)NC(=O)[C@H](Cc2ccc(C(=O)O)cc2)NC(=O)[C@H](Cc2cccc(C(F)(F)F)c2)NC(=O)[C@H](CC(=O)O)NC(=O)[C@H](Cc2ccc(OCC(=O)O)cc2)NC(=O)[C@H](CN2CCOCC2)NC(=O)CSC[C@@H](C(=O)N[C@@H](CCN)C(=O)NCCCCCCCCCCCCC(=O)O)NC1=O` [Example 1157] ({CH2CO}-[Ala(morpholin-4-yl)]Y(Carboxymethyl)D[Phe(3-CF3)][Phe(4-COOH)][Bip][Cit][NMeA][dL][Dab][Cha][Val(3-OH)]K(Ac)C[Dab]-{NH(CH2)12COOH}; thioether N-14) was tested. Which IC50 did it give?
**A.** The IC50 was 4.6 nM.

**Q.** Which IC50 does the source give for `Cc1cccc(C[C@@H]2NC(=O)[C@H](CC(=O)O)NC(=O)[C@H](Cc3ccc(OCC(=O)O)cc3)NC(=O)[C@H](C(C)O)NC(=O)CSC[C@@H](C(=O)N(C)CCOCCOCC(=O)NCCCCCCCCCCC(=O)O)NC(=O)[C@H](C(C)O)NC(=O)[C@H](C(C)C)NC(=O)[C@H](CC3CCCCC3)NC(=O)[C@H](CCN)NC(=O)[C@@H](CC(C)C)NC(=O)[C@H](C)N(C)C(=O)[C@H](C(C)C)NC(=O)[C@H](Cc3ccc(-c4ccccc4)cc3)NC(=O)[C@H](C(C)C)NC2=O)c1` (stereo partly drawn) [Example 2363] ({CH2CO}-[Thr(3ξ)]Y(Carboxymethyl)D[Phe(3-Me)]V[Bip]V[NMeA][dL][Dab][Cha]V[Thr(3ξ)]C[NMeAEEA][Aun]-OH; thioether N-14) here?
**A.** The IC50 was 21.9 nM.

**Q.** Which IC50 does the source give for `CCC(C)[C@@H]1NC(=O)[C@H](Cc2ccc(-c3ccccc3)cc2)NC(=O)[C@H](CC(C)C)NC(=O)[C@H](Cc2c[nH]c3ccccc23)NC(=O)[C@H](CC(=O)O)NC(=O)[C@H](Cc2ccc(OCC(=O)O)cc2)NC(=O)[C@H](CCCCNC(=N)N)NC(=O)CSC[C@@H](C(=O)NCCOCCOCC(=O)N[C@@H](CCN)C(=O)NCCCCCCCCCCC(=O)O)NC(=O)[C@H](CCCCN)NC(=O)[C@H](C(C)C)NC(=O)[C@H](CC2CCCCC2)NC(=O)[C@H](CCN)NC(=O)[C@@H](C)NC(=O)[C@H](C)N(C)C1=O` (some centres unmarked) [Example 2185] ({CH2CO}-[hArg]Y(Carboxymethyl)DWL[Bip][Ile(3ξ)][NMeA][dA][Dab][Cha]VKC[AEEA][Dab][Aun]-OH; thioether N-14) here?
**A.** The IC50 was 40.2 nM.

**Q.** Which IC50 does the source give for `CCC(C)[C@@H]1NC(=O)[C@H](Cc2ccc(-c3ccccc3)cc2)NC(=O)[C@H](CC(C)C)NC(=O)[C@H](Cc2c[nH]c3ccccc23)NC(=O)[C@H](CC(=O)O)NC(=O)[C@H](Cc2ccc(OCC(=O)O)cc2)NC(=O)[C@H](Cc2ccncc2)NC(=O)CSC[C@@H](C(=O)NCCOCCOCC(=O)N[C@@H](CCCN)C(=O)NCCCCCCCCCCC(=O)O)NC(=O)[C@H](CO)NC(=O)[C@H](C(C)C)NC(=O)[C@H](CC(C)C)NC(=O)[C@H](CC(N)=O)NC(=O)[C@@H](CC(C)C)NC(=O)[C@H](C)N(C)C1=O` (stereo partly drawn) [Example 2062] ({CH2CO}-[4Pal]Y(Carboxymethyl)DWL[Bip][Ile(3ξ)][NMeA][dL]NLVSC[AEEA][Orn][Aun]-OH; thioether N-14) here?
**A.** Its IC50 is 38.1 nM.

**Q.** Which IC50 does the source give for `Cc1cccc(C[C@@H]2NC(=O)[C@H](CC(=O)O)NC(=O)[C@H](Cc3ccncc3)NC(=O)[C@H](Cc3ccc(OCC(=O)O)cc3)NC(=O)CSC[C@@H](C(=O)N[C@@H](CCN)C(=O)NCCOCCOCC(=O)NCCCCCCCCCCC(=O)O)NC(=O)[C@H]([C@@H](C)O)NC(=O)[C@H](C(C)C)NC(=O)[C@H](CC3CCCCC3)NC(=O)[C@H](CC(N)=O)NC(=O)[C@@H](CC(C)C)NC(=O)[C@H](C)N(C)C(=O)[C@H](Cc3ccc(OCC(=O)O)cc3)NC(=O)[C@H](Cc3ccc(-c4ccccc4)cc3)NC(=O)[C@H](Cc3ccc(OCC(=O)O)cc3)NC2=O)c1` [Example 1357] ({CH2CO}-Y(Carboxymethyl)[4Pal]D[Phe(3-Me)]Y(Carboxymethyl)[Bip]Y(Carboxymethyl)[NMeA][dL]N[Cha]VTC[Dab][AEEA][Aun]-OH; thioether N-14) here?
**A.** The IC50 was 20.5 nM.

same assay, conditions: PE-labeled PD-L1-Ig 20 nM final, Jurkat-hPD-1 cells; read-out: Jurkat HPD1 PDL1 IC50

**Q.** `CC(C)C[C@H]1NC(=O)[C@H](C)N(C)C(=O)[C@H](CCC(N)=O)NC(=O)[C@H](Cc2ccc(-c3ccccc3)cc2)NC(=O)[C@H](Cc2ccc(C(=O)O)cc2)NC(=O)[C@H](Cc2cccc(C(F)(F)F)c2)NC(=O)[C@H](CC(=O)O)NC(=O)[C@H](Cc2ccc(OCC(=O)O)cc2)NC(=O)[C@H](Cc2ccc(OCC(=O)O)cc2)NC(=O)CSC[C@@H](C(=O)N[C@@H](CCN)C(=O)NCCOCCOCC(=O)NCCOCCOCC(=O)NCCCCCCCCCCCCCCC(=O)O)NC(=O)[C@H](CO)NC(=O)[C@H](C(C)(C)O)NC(=O)[C@H](CC2CCCCC2)NC(=O)[C@H](CCN)NC1=O` [Example 2614] ({CH2CO}-Y(Carboxymethyl)Y(Carboxymethyl)D[Phe(3-CF3)][Phe(4-COOH)][Bip]Q[NMeA][dL][Dab][Cha][Val(3-OH)]SC[Dab][AEEA][AEEA]-{NH(CH2)14COOH}; thioether N-14) was tested. Which IC50 did it give?
**A.** The IC50 was 190 nM.

**Q.** Which IC50 does the source give for `CCC(C)[C@@H]1NC(=O)[C@H](Cc2ccc(-c3ccccc3)cc2)NC(=O)[C@H](CC(C)C)NC(=O)[C@H](Cc2c[nH]c3ccccc23)NC(=O)[C@H](CC(=O)O)NC(=O)[C@H](Cc2ccc(OCC(=O)O)cc2)NC(=O)[C@H](Cc2ccncc2)NC(=O)CSC[C@@H](C(=O)N[C@@H](CCN)C(=O)NCCOCCOCC(=O)NCCCCCCCCCCC(=O)O)NC(=O)[C@H](CO)NC(=O)[C@H](C(C)(C)O)NC(=O)[C@H](CC2CCCCC2)NC(=O)[C@H](CCN)NC(=O)[C@@H](CC(C)C)NC(=O)[C@H](C)N(C)C1=O` (stereo partly drawn) [Example 2502] ({CH2CO}-[4Pal]Y(Carboxymethyl)DWL[Bip][Ile(3ξ)][NMeA][dL][Dab][Cha][Val(3-OH)]SC[Dab][AEEA][Aun]-OH; thioether N-14) here?
**A.** The IC50 was 148 nM.
